Read-outs that look alike come from different tables or passages of the source.
Key:
CCRF-CEM = test: Tumor cell proliferation inhibition (CellTiter-Meiluncell Luminescent Cell Viability Assay), CCRF-CEM; conditions: Homo sapiens; for inhibition at 0.01 µM: read-out: Inhibition rate (%) at 10 nM; for inhibition at 0.5 µM: read-out: Inhibition rate (%) at 500 nM; for IC50: read-out: inhibitory activity (IC50, nM) against tumor cells proliferation, CCRF-CEM
[1] = system: Human breast cancer cells (MDA-MB-231); test: Tumor cell proliferation inhibition (CellTiter-Meiluncell Luminescent Cell Viability Assay), MDA-MB-231; conditions: for inhibition at 0.01 µM: MDA-MB-231, read-out: Inhibition rate (%) at 10 nM; for inhibition at 0.5 µM: MDA-MB-231, read-out: Inhibition rate (%) at 500 nM
[2] = system: Human acute T lymphocytic leukemia cells (Molt-4); test: Tumor cell proliferation inhibition (CellTiter-Meiluncell Luminescent Cell Viability Assay), Molt-4; conditions: for inhibition at 0.01 µM: MOLT-4, read-out: Inhibition rate (%) at 10 nM; for inhibition at 0.5 µM: MOLT-4, read-out: Inhibition rate (%) at 500 nM
Method: (§1) The tumor cells used herein were cultured in a cell culture medium listed in table 2 at 37°C in an incubator with 5% CO2. Prior to experimentation, all cell lines used were correctly identified by STR profiling, and tested negative for mycoplasma contamination using a mycoplasma detection kit through routine screenings.
(§2) On the following day, the test compounds of the present disclosure were subjected to serial dilution. […] Subsequently, 0.5 µL of the test compound dilution was transferred into the 96-well plate containing the cells, with each well containing 100 µL of cell culture medium. […] Into the 96-well plate, the diluted test compounds and corresponding detection reagents were added, resulting in final test compound concentrations of 500 nM and 10 nM, respectively. The experimental procedure is described below using the diluted 2 µM test compound as an example.
(§3) After the cells were treated with the compounds of the present disclosure for a specified period (the treatment durations were shown in Table 3), the cell viability assay reagent was added to the culture medium according to the kit's instructions to determine cell viability. […] All controls were treated using the same procedure as the compounds of the present disclosure. The growth inhibition curves for the compounds of the present disclosure were plotted using Prism GraphPad software, and the IC50 values were calculated therefrom.

Kasumi-1 = test: Tumor cell proliferation inhibition (CellTiter-Meiluncell Luminescent Cell Viability Assay), Kasumi-1; conditions: Homo sapiens; for inhibition at 0.01 µM: Kasumi 1, read-out: Inhibition rate (%) at 10 nM; for inhibition at 0.5 µM: Kasumi 1, read-out: Inhibition rate (%) at 500 nM
Method: as §2, §3

GSPT1 = biological target: T1, GSPT1 (Homo sapiens, UniProt P15170+Q96SW2); test: Western-blot assay of substrate protein degradation in hPBMCs, GSPT1; format: cell-based; conditions: 24 hours of compound treatment, 50 nM and 500 nM tested (concentration behind the class not stated)
T1 construct: endogenous in cells; host or cells: hPBMCs (Milecell Biotechnologies)

IKZF2 = biological target: T2, IKZF2 (Homo sapiens, UniProt Q96SW2+Q9UKS7); test: Western-blot assay of substrate protein degradation in hPBMCs, IKZF2; format: cell-based; conditions: 24 hours of compound treatment, 50 nM and 500 nM tested (concentration behind the class not stated)
T2 construct: endogenous in cells; host or cells: hPBMCs (Milecell Biotechnologies)

CK1α = biological target: T3, CK1α (Homo sapiens, UniProt P48729+Q96SW2); test: Western-blot assay of substrate protein degradation in hPBMCs, CK1α; format: cell-based; conditions: 24 hours of compound treatment, 50 nM and 500 nM tested (concentration behind the class not stated)
T3 construct: endogenous in cells; host or cells: hPBMCs (Milecell Biotechnologies)

IKZF3 = biological target: T4, IKZF3 (Homo sapiens, UniProt Q96SW2+Q9UKT9); test: Western-blot assay of substrate protein degradation in hPBMCs, IKZF3; format: cell-based; conditions: 24 hours of compound treatment, 50 nM and 500 nM tested (concentration behind the class not stated)
T4 construct: endogenous in cells; host or cells: hPBMCs (Milecell Biotechnologies)

IKZF1 = biological target: T5, IKZF1 (Homo sapiens, UniProt Q13422+Q96SW2); test: Western-blot assay of substrate protein degradation in hPBMCs, IKZF1; format: cell-based; conditions: 24 hours of compound treatment, 50 nM and 500 nM tested (concentration behind the class not stated)
T5 construct: endogenous in cells; host or cells: hPBMCs (Milecell Biotechnologies)

WEE1 = biological target: T6, WEE1 (Homo sapiens, UniProt P30291+Q96SW2); test: Western-blot assay of substrate protein degradation in hPBMCs, WEE1; format: cell-based; conditions: 24 hours of compound treatment, 50 nM and 500 nM tested (concentration behind the class not stated)
T6 construct: endogenous in cells; host or cells: hPBMCs (Milecell Biotechnologies)

MV-4-11 = test: Tumor cell proliferation inhibition (CellTiter-Meiluncell Luminescent Cell Viability Assay), MV-4-11; conditions: Homo sapiens, MV4-11, read-out: inhibitory activity (IC50, nM) against tumor cells proliferation, MV-4-11
NCI-H1975 = test: Tumor cell proliferation inhibition (CellTiter-Meiluncell Luminescent Cell Viability Assay), NCI-H1975; conditions: Homo sapiens
SR = test: Tumor cell proliferation inhibition (CellTiter-Meiluncell Luminescent Cell Viability Assay), SR; conditions: Homo sapiens, read-out: inhibitory activity (IC50, nM) against tumor cells proliferation, SR
Method: as §1
(§4) On the following day, the test compounds of the present disclosure were subjected to serial dilution. […] Subsequently, 0.5 µL of the test compound dilution was transferred into the 96-well plate containing the cells, with each well containing 100 µL of cell culture medium. […] Into the 96-well plate, the diluted test compounds and corresponding detection reagents were added, resulting in final test compound concentrations of 500 nM and 10 nM, respectively.
as §3

[3] = biological target: T7, human Cereblon WT GST-tagged protein (Homo sapiens, UniProt Q96SW2); test: CRBN-binding affinity by HTRF (CEREBLON BINDING kit); conditions: HTRF inhibitory activity, CEREBLON BINDING kit; read-out: HTRF IC50
T7 construct: purchased CISBIO 64BDCRBNPEH

MM.1S = test: Tumor cell proliferation inhibition (CellTiter-Meiluncell Luminescent Cell Viability Assay), MM.1S; conditions: Homo sapiens, MM1.S, read-out: inhibitory activity (IC50, nM) against tumor cells proliferation, MM.1S
Method: as §1, §4, §3

TMD8 = test: Tumor cell proliferation inhibition (CellTiter-Meiluncell Luminescent Cell Viability Assay), TMD8; conditions: Homo sapiens
Jurkat = test: Tumor cell proliferation inhibition (CellTiter-Meiluncell Luminescent Cell Viability Assay), Jurkat; conditions: Homo sapiens, read-out: inhibitory activity (IC50, nM) against tumor cells proliferation, Jurkat
Vcap = test: Tumor cell proliferation inhibition (CellTiter-Meiluncell Luminescent Cell Viability Assay), Vcap; conditions: Homo sapiens, 96 h, read-out: inhibitory activity (IC50, nM) against tumor cells proliferation, Vcap
Method: as §1, §2, §3

MGC803 = test: Tumor cell proliferation inhibition (CellTiter-Meiluncell Luminescent Cell Viability Assay), MGC803; conditions: Homo sapiens, MGC-803, 96 h, read-out: inhibitory activity (IC50, nM) against tumor cells proliferation, MGC803
Method: as §1, §4, §3

MM.1R = test: Tumor cell proliferation inhibition (CellTiter-Meiluncell Luminescent Cell Viability Assay), MM.1R; conditions: Homo sapiens, 96 h, read-out: inhibitory activity (IC50, nM) against tumor cells proliferation, MM.1R
CAL-62 = test: Tumor cell proliferation inhibition (CellTiter-Meiluncell Luminescent Cell Viability Assay), CAL-62; conditions: Homo sapiens, CAL-62, 96 h, read-out: inhibitory activity (IC50, nM) against tumor cells proliferation, CAL-62
SW620 = test: Tumor cell proliferation inhibition (CellTiter-Meiluncell Luminescent Cell Viability Assay), SW620; conditions: Homo sapiens, SW-620, 96 h, read-out: inhibitory activity (IC50, nM) against tumor cells proliferation, SW620
Method: as §1, §2, §3

[4] = NCI-H1975, read-out: inhibitory activity (IC50, nM) against tumor cells proliferation, H1975
[5] = MOLT-4, read-out: inhibitory activity (IC50, nM) against tumor cells proliferation, Molt-4
[6] = TMD8, read-out: inhibitory activity (IC50, nM) against tumor cells proliferation, TMD8

T2 sequence (Q9UKS7 whole entry): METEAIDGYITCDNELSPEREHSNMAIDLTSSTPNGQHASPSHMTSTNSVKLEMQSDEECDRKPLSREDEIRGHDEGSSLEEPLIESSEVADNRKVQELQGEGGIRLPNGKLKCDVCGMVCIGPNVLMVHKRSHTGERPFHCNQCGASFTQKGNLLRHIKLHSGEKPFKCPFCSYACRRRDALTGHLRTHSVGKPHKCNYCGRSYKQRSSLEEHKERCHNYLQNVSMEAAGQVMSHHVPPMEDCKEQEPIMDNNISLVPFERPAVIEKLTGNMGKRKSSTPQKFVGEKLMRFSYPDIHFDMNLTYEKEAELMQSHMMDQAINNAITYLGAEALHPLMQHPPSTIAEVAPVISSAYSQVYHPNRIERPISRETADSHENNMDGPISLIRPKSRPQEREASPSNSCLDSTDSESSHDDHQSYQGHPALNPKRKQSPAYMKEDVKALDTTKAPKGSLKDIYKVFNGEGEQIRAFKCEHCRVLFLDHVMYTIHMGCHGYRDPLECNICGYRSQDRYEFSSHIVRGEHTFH
T2 sequence (Q96SW2 whole entry): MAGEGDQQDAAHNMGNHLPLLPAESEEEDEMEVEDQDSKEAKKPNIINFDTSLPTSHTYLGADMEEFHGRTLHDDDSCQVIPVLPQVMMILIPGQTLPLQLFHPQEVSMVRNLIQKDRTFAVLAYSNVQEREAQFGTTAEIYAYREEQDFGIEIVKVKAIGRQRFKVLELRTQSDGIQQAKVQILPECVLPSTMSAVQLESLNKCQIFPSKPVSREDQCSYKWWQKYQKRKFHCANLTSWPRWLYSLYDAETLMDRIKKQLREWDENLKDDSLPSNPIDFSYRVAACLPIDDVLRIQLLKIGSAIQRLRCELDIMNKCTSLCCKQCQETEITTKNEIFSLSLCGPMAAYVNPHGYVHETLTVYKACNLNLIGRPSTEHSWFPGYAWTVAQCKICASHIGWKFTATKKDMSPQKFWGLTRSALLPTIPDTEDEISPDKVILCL
T2 sequence (Q16531 whole entry partner): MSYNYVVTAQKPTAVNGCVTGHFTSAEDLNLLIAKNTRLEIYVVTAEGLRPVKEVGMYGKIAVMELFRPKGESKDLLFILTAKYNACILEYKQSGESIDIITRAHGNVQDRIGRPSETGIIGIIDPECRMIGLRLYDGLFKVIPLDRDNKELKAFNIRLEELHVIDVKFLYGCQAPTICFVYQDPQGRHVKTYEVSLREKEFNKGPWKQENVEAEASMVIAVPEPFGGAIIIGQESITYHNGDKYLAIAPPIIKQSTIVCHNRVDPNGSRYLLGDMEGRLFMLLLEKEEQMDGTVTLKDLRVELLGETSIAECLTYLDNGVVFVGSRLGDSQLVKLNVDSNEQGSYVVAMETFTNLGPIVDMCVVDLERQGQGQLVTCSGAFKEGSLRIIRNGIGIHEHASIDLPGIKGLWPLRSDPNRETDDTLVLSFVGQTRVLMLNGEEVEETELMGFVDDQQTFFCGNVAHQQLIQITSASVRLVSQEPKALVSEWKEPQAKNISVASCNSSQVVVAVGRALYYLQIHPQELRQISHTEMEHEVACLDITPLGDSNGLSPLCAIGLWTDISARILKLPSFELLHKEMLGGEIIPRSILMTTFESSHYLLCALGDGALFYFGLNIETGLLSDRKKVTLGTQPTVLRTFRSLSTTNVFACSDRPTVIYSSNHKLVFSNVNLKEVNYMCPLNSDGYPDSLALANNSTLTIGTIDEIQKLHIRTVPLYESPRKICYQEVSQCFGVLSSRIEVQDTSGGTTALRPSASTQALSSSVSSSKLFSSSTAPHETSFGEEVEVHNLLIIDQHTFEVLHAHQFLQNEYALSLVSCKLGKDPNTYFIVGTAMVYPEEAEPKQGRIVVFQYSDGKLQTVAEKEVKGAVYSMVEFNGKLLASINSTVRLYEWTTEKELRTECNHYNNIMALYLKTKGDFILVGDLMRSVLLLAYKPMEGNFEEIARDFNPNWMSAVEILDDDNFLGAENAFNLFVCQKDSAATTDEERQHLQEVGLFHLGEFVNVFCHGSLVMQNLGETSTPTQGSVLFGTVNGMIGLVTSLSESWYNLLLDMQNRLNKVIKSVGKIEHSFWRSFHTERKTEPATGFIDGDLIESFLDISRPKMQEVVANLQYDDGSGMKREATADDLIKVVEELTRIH
T4 sequence (Q9UKT9 whole entry): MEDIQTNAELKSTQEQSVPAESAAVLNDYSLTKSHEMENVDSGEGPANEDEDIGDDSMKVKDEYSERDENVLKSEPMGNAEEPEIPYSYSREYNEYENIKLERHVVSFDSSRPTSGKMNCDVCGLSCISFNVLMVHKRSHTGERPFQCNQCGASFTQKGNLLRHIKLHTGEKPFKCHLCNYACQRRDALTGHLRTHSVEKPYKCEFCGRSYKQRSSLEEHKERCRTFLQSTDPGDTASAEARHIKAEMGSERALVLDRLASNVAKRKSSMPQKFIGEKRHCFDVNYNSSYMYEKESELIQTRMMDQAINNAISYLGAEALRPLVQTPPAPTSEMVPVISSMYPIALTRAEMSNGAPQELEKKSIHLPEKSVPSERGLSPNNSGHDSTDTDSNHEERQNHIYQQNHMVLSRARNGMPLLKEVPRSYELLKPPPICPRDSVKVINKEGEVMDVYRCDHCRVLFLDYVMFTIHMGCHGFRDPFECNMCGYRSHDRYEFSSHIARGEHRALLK
T4 sequence (Q96SW2 whole entry): as the sequence (Q96SW2 whole entry) above
T4 sequence (Q16531 whole entry partner): as the sequence (Q16531 whole entry partner) above
T1 sequence (P15170 whole entry): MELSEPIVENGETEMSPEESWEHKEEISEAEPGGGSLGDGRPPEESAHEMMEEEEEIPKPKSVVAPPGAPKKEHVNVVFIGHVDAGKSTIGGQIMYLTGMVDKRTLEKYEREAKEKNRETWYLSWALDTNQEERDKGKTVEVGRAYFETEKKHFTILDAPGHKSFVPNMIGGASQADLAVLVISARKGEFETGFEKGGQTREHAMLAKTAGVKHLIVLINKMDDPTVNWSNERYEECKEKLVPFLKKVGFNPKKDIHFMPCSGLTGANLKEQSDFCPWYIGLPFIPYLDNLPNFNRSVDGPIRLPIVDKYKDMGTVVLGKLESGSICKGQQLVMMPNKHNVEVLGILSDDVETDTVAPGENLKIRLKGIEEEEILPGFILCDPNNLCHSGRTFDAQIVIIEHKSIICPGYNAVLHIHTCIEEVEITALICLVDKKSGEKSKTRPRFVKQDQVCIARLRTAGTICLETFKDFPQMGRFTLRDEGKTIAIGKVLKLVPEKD
T1 sequence (Q96SW2 whole entry): as the sequence (Q96SW2 whole entry) above
T1 sequence (Q16531 whole entry partner): as the sequence (Q16531 whole entry partner) above
T5 sequence (Q13422 whole entry): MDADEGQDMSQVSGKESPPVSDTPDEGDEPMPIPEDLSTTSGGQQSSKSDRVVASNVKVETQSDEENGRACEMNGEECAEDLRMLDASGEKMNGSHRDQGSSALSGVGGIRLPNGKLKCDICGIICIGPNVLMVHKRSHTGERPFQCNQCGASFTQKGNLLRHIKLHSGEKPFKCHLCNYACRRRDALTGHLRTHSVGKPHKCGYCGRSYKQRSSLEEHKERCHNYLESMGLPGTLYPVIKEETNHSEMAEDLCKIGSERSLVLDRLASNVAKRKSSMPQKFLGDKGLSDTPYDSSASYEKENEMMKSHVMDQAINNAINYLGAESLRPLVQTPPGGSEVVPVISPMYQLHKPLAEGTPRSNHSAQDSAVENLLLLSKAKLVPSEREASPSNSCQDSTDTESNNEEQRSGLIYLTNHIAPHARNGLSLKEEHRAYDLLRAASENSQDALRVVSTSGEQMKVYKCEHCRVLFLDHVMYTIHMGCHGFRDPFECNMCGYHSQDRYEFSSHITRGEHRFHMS
T5 sequence (Q96SW2 whole entry): as the sequence (Q96SW2 whole entry) above
T5 sequence (Q16531 whole entry partner): as the sequence (Q16531 whole entry partner) above
T3 sequence (P48729 whole entry): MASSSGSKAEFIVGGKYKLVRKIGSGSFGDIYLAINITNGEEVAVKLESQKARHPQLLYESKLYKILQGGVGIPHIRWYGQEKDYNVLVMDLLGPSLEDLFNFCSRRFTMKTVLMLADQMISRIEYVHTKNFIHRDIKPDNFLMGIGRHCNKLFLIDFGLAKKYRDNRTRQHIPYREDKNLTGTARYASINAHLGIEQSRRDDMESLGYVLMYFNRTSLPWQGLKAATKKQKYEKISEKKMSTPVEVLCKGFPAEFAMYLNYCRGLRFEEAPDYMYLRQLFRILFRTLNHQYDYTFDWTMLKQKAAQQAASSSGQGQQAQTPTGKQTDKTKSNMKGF
T3 sequence (Q96SW2 whole entry): as the sequence (Q96SW2 whole entry) above
T3 sequence (Q16531 whole entry partner): as the sequence (Q16531 whole entry partner) above
T7 sequence (Q96SW2 whole entry): as the sequence (Q96SW2 whole entry) above

SMILES	inhibition at 0.01 µM (CCRF-CEM) [%]	inhibition at 0.5 µM (CCRF-CEM) [%]	inhibition at 0.01 µM [1] [%]	inhibition at 0.5 µM [1] [%]	inhibition at 0.01 µM [2] [%]	inhibition at 0.5 µM [2] [%]	inhibition at 0.01 µM (Kasumi-1) [%]	inhibition at 0.5 µM (Kasumi-1) [%]	GSPT1 substrate protein remaining % (GSPT1)	IKZF2 substrate protein remaining % (IKZF2)	CK1a substrate protein remaining % (CK1α)	IKZF3 substrate protein remaining % (IKZF3)	IKZF 1 substrate protein remaining % (IKZF1)	Weel substrate protein remaining % (WEE1)	IC50 (CCRF-CEM) [nM]	IC50 (MV-4-11) [nM]	IC50 (NCI-H1975; [4]) [nM]	IC50 (SR) [nM]	IC50 (MM.1S) [nM]	IC50 [2, 5] [nM]	further results
Nc1cccc2c1CN(C1CCC(=O)NC1=O)C2=O (centres unmarked) [lenalidomide, reference compound]	10 to 15	10 to 15	15 to 20	10 to 15	15 to 20	10 to 15	5 to 10	0 to 5													
O=C1CCC(N2C(=O)c3ccc(CN4CC(=C5CCOc6cc(F)ccc65)C4)cc3C2=O)C(=O)N1 (centres unmarked) [GT-08134, 2-(2,6-dioxopiperidin-3-yl)-5-((3-(7-fluorochroman-4-ylidene)azetidin-1-yl)methyl)isoindoline-1,3-dione]	15 to 20	60 to 80	30 to 40	20 to 30			10 to 15	60 to 80	A (0% ≤ substrate protein remaining % ≤ 80%)	A (0% ≤ substrate protein remaining % ≤ 80%)	B (80%< substrate protein remaining %≤ 100%)	A (0% ≤ substrate protein remaining % ≤ 80%)	A (0% ≤ substrate protein remaining % ≤ 80%)	B (80%< substrate protein remaining %≤ 100%)							
O=C1CCC(N2C(=O)c3ccc(CN4CC=C(c5cccc(Cl)c5Cl)CC4)cc3C2=O)C(=O)N1 (centres unmarked) [GT-07842, 5-((4-(2,3-dichlorophenyl)-3,6-dihydropyridin-1(2H)-yl)methyl)-2-(2,6-dioxopiperidin-3-yl)isoindoline-1,3-dione]	20 to 30	90 to 100	20 to 30	20 to 30	20 to 30	80 to 90	30 to 40	40 to 50	A (0% ≤ substrate protein remaining % ≤ 80%)	A (0% ≤ substrate protein remaining % ≤ 80%)	B (80%< substrate protein remaining %≤ 100%)	A (0% ≤ substrate protein remaining % ≤ 80%)	A (0% ≤ substrate protein remaining % ≤ 80%)	B (80%< substrate protein remaining %≤ 100%)							
O=C1CCC(N2C(=O)c3ccc(CN4CCN(c5nc(N6CCCCC6)nc6c5SCC6)CC4)cc3C2=O)C(=O)N1 (centres unmarked) [GT-08003, 2-(2,6-dioxopiperidin-3-yl)-5-((4-(2-(piperidin-1-yl)-6,7-dihydrothieno[3,2-d]pyrimidin-4-yl)piperazin-1-yl)methyl)isoindoline-1,3-dione]	20 to 30	90 to 100	30 to 40	30 to 40	20 to 30	90 to 100	5 to 10	80 to 90	A (0% ≤ substrate protein remaining % ≤ 80%)	A (0% ≤ substrate protein remaining % ≤ 80%)	A (0% ≤ substrate protein remaining % ≤ 80%)	A (0% ≤ substrate protein remaining % ≤ 80%)	A (0% ≤ substrate protein remaining % ≤ 80%)	B (80%< substrate protein remaining %≤ 100%)							
O=C1CCC(N2C(=O)c3ccc(CN4CC=C(c5ncnc6sc(-c7ccccc7)cc56)CC4)cc3C2=O)C(=O)N1 (centres unmarked) [GT-06675, 2-(2,6-dioxopiperidin-3-yl)-5-((4-(6-phenylthieno[2,3-d]pyrimidin-4-yl)-3,6-dihydropyridin-1(2H)-yl)methyl)isoindoline-1,3-dione]									B (80%< substrate protein remaining %≤ 100%)	B (80%< substrate protein remaining %≤ 100%)	A (0% ≤ substrate protein remaining % ≤ 80%)	B (80%< substrate protein remaining %≤ 100%)	B (80%< substrate protein remaining %≤ 100%)	B (80%< substrate protein remaining %≤ 100%)	10 to 50	50 to 100	100 to 500	500 to 1000	100 to 500	10 to 50	IC50 [3]: 0.5 to 1 µM; IC50 (TMD8; [6]): 500 to 1000 nM; IC50 (Jurkat): 50 to 100 nM
Nc1cccc2c1C(=O)N(C1CCC(=O)NC1=O)C2=O (centres unmarked) [pomalidomide, reference compound]															> 10000	> 10000	> 10000	> 10000	500 to 1000	> 10000	IC50 (CCRF-CEM; 96 h): > 10000 nM; IC50 (Vcap): > 10000 nM; IC50 ([1]; MDA-MB-231, 96 h, read-out: inhibitory activity (IC50, nM) against tumor cells proliferation, MDA-MB-231): > 10000 nM; IC50 (NCI-H1975; NCI-H1975, 96 h, read-out: inhibitory activity (IC50, nM) against tumor cells proliferation, H1975): > 10000 nM; IC50 (SR; 96 h): > 10000 nM; IC50 (MGC803): > 10000 nM; IC50 (MM.1R): > 10000 nM; IC50 ([2]; MOLT-4, 96 h, read-out: inhibitory activity (IC50, nM) against tumor cells proliferation, Molt 4): > 10000 nM; IC50 (CAL-62): > 10000 nM; IC50 (SW620): > 10000 nM; IC50 (TMD8; TMD8, 96 h, read-out: inhibitory activity (IC50, nM) against tumor cells proliferation, TMD8): 5000 to 10000 nM; IC50 (TMD8; [6]): 5000 to 10000 nM; IC50 (Jurkat; 96 h): > 10000 nM; IC50 (Jurkat): > 10000 nM

Source: patent EP4745137A1 (Gluetacs Therapeutics (Shanghai) Co., Ltd., priority 2023, dated 2025)
